According to PubChem BioAssay (NCI):
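Compound exposure: 48 hours, 5 concentrations, 96-well plates. TGI: concentration producing complete growth inhibition.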

Assays:
Assay in all cases: growth of human tumour cells (NCI), 48 h
SW-620 colon = test system: SW-620 colon
ACHN renal = test system: ACHN renal
OVCAR-8 ovarian = test system: OVCAR-8 ovarian
U251 CNS = test system: U251 CNS
SK-MEL-2 melanoma = test system: SK-MEL-2 melanoma
HCT-15 colon = test system: HCT-15 colon
NCI/ADR-RES ovarian = test system: NCI/ADR-RES ovarian
K-562 leukemia = test system: K-562 leukemia
NCI-H23 lung = test system: NCI-H23 lung
HT29 colon = test system: HT29 colon
KM12 colon = test system: KM12 colon
SK-OV-3 ovarian = test system: SK-OV-3 ovarian
RXF 393 renal = test system: RXF 393 renal
M14 melanoma = test system: M14 melanoma
MDA-N = test system: MDA-N
MALME-3M melanoma = test system: MALME-3M melanoma
PC-3 prostate = test system: PC-3 prostate
MCF7 breast = test system: MCF7 breast
NCI-H522 lung = test system: NCI-H522 lung
NCI-H460 lung = test system: NCI-H460 lung
COLO 205 colon = test system: COLO 205 colon
T-47D breast = test system: T-47D breast
DU-145 prostate = test system: DU-145 prostate
OVCAR-4 ovarian = test system: OVCAR-4 ovarian
LOX IMVI melanoma = test system: LOX IMVI melanoma
CAKI-1 renal = test system: CAKI-1 renal
SF-268 CNS = test system: SF-268 CNS
HCT-116 colon = test system: HCT-116 colon
HOP-62 NSCLC = test system: HOP-62 NSCLC
OVCAR-3 ovarian = test system: OVCAR-3 ovarian
NCI-H226 lung = test system: NCI-H226 lung
RPMI-8226 leukemia = test system: RPMI-8226 leukemia
SNB-19 CNS = test system: SNB-19 CNS
OVCAR-5 ovarian = test system: OVCAR-5 ovarian
HL-60(TB) leukemia = test system: HL-60(TB) leukemia
SF-295 CNS = test system: SF-295 CNS
SK-MEL-5 melanoma = test system: SK-MEL-5 melanoma
SNB-75 CNS = test system: SNB-75 CNS
SF-539 CNS = test system: SF-539 CNS
A549 NSCLC = test system: A549 NSCLC
BT-549 breast = test system: BT-549 breast
HOP-92 NSCLC = test system: HOP-92 NSCLC
MDA-MB-435 = test system: MDA-MB-435
786-0 renal = test system: 786-0 renal
HS 578T breast = test system: HS 578T breast
SN12C renal = test system: SN12C renal
SK-MEL-28 melanoma = test system: SK-MEL-28 melanoma
TK-10 renal = test system: TK-10 renal
A498 renal = test system: A498 renal
SR leukemia = test system: SR leukemia
IGROV1 ovarian = test system: IGROV1 ovarian
EKVX NSCLC = test system: EKVX NSCLC
CCRF-CEM leukemia = test system: CCRF-CEM leukemia
MDA-MB-231 breast = test system: MDA-MB-231 breast
UACC-257 melanoma = test system: UACC-257 melanoma
MOLT-4 leukemia = test system: MOLT-4 leukemia
UACC-62 melanoma = test system: UACC-62 melanoma
UO-31 renal = test system: UO-31 renal

SMILES: CC1(C)CC(=O)C(C(c2cccc(O)c2O)C2C(=O)CC(C)(C)CC2=O)C(=O)C1
- TGI (SW-620 colon): > 100 µM
- TGI (ACHN renal): > 100 µM
- TGI (OVCAR-8 ovarian): > 100 µM
- TGI (U251 CNS): > 100 µM
- TGI (SK-MEL-2 melanoma): > 100 µM
- TGI (HCT-15 colon): > 100 µM
- TGI (NCI/ADR-RES ovarian): > 100 µM
- TGI (K-562 leukemia): > 100 µM
- TGI (NCI-H23 lung): > 100 µM
- TGI (HT29 colon): > 100 µM
- TGI (KM12 colon): > 100 µM
- TGI (SK-OV-3 ovarian): > 100 µM
- TGI (RXF 393 renal): > 100 µM
- TGI (M14 melanoma): > 100 µM
- TGI (MDA-N): > 100 µM
- TGI (MALME-3M melanoma): > 100 µM
- TGI (PC-3 prostate): > 100 µM
- TGI (MCF7 breast): > 100 µM
- TGI (NCI-H522 lung): > 100 µM
- TGI (NCI-H460 lung): > 100 µM
- TGI (COLO 205 colon): > 100 µM
- TGI (T-47D breast): > 100 µM
- TGI (DU-145 prostate): > 100 µM
- TGI (OVCAR-4 ovarian): > 100 µM
- TGI (LOX IMVI melanoma): > 100 µM
- TGI (CAKI-1 renal): > 100 µM
- TGI (SF-268 CNS): > 100 µM
- TGI (HCT-116 colon): > 100 µM
- TGI (HOP-62 NSCLC): > 100 µM
- TGI (OVCAR-3 ovarian): > 100 µM
- TGI (NCI-H226 lung): > 100 µM
- TGI (RPMI-8226 leukemia): > 100 µM
- TGI (SNB-19 CNS): > 100 µM
- TGI (OVCAR-5 ovarian): > 100 µM
- TGI (HL-60(TB) leukemia): > 100 µM
- TGI (SF-295 CNS): > 100 µM
- TGI (SK-MEL-5 melanoma): > 100 µM
- TGI (SNB-75 CNS): > 100 µM
- TGI (SF-539 CNS): > 100 µM
- TGI (A549 NSCLC): > 100 µM
- TGI (BT-549 breast): > 100 µM
- TGI (HOP-92 NSCLC): > 100 µM
- TGI (MDA-MB-435): > 100 µM
- TGI (786-0 renal): > 100 µM
- TGI (HS 578T breast): > 100 µM
- TGI (SN12C renal): > 100 µM
- TGI (SK-MEL-28 melanoma): > 100 µM
- TGI (TK-10 renal): > 100 µM
- TGI (A498 renal): > 100 µM
- TGI (SR leukemia): > 100 µM
- TGI (IGROV1 ovarian): > 100 µM
- TGI (EKVX NSCLC): > 100 µM
- TGI (CCRF-CEM leukemia): > 100 µM
- TGI (MDA-MB-231 breast): > 100 µM
- TGI (UACC-257 melanoma): > 100 µM
- TGI (MOLT-4 leukemia): > 100 µM
- TGI (UACC-62 melanoma): > 100 µM

SMILES: COc1ccc(C(=O)/C=C2\c3ccccc3C(=O)N2C)cc1
- TGI (SW-620 colon): > 100 µM
- TGI (ACHN renal): > 100 µM
- TGI (OVCAR-8 ovarian): > 100 µM
- TGI (U251 CNS): > 100 µM
- TGI (SK-MEL-2 melanoma): > 100 µM
- TGI (HCT-15 colon): > 100 µM
- TGI (NCI/ADR-RES ovarian): > 100 µM
- TGI (K-562 leukemia): > 100 µM
- TGI (NCI-H23 lung): > 100 µM
- TGI (HT29 colon): > 100 µM
- TGI (KM12 colon): > 100 µM
- TGI (SK-OV-3 ovarian): > 100 µM
- TGI (RXF 393 renal): 82.8 µM
- TGI (M14 melanoma): > 100 µM
- TGI (MDA-N): > 100 µM
- TGI (MALME-3M melanoma): > 100 µM
- TGI (PC-3 prostate): > 100 µM
- TGI (MCF7 breast): > 100 µM
- TGI (NCI-H522 lung): > 100 µM
- TGI (NCI-H460 lung): > 100 µM
- TGI (COLO 205 colon): > 100 µM
- TGI (T-47D breast): > 100 µM
- TGI (DU-145 prostate): > 100 µM
- TGI (OVCAR-4 ovarian): > 100 µM
- TGI (LOX IMVI melanoma): > 100 µM
- TGI (CAKI-1 renal): > 100 µM
- TGI (SF-268 CNS): > 100 µM
- TGI (HCT-116 colon): > 100 µM
- TGI (HOP-62 NSCLC): > 100 µM
- TGI (UO-31 renal): > 100 µM
- TGI (OVCAR-3 ovarian): > 100 µM
- TGI (RPMI-8226 leukemia): > 100 µM
- TGI (SNB-19 CNS): > 100 µM
- TGI (OVCAR-5 ovarian): > 100 µM
- TGI (SF-295 CNS): > 100 µM
- TGI (SK-MEL-5 melanoma): > 100 µM
- TGI (SNB-75 CNS): > 100 µM
- TGI (SF-539 CNS): > 100 µM
- TGI (A549 NSCLC): > 100 µM
- TGI (BT-549 breast): > 100 µM
- TGI (HOP-92 NSCLC): 75.7 µM
- TGI (MDA-MB-435): > 100 µM
- TGI (786-0 renal): > 100 µM
- TGI (HS 578T breast): > 100 µM
- TGI (SN12C renal): > 100 µM
- TGI (SK-MEL-28 melanoma): > 100 µM
- TGI (TK-10 renal): > 100 µM
- TGI (A498 renal): > 100 µM
- TGI (SR leukemia): > 100 µM
- TGI (IGROV1 ovarian): > 100 µM
- TGI (EKVX NSCLC): > 100 µM
- TGI (CCRF-CEM leukemia): > 100 µM
- TGI (MDA-MB-231 breast): > 100 µM
- TGI (UACC-257 melanoma): > 100 µM
- TGI (MOLT-4 leukemia): > 100 µM
- TGI (UACC-62 melanoma): > 100 µM
